In general, IC50 refers to the concentration that gives 50% inhibition.

Molecules are shown by their SMILES.

The record followed here is patent US7834179B2, “Spiroindolinone derivatives” (Hoffmann-La Roche Inc., priority 2007, dated 2010).

The target in the assay is interaction between p53 and MDM2 proteins (Homo sapiens, UniProt Q00987). Nature of the assay: HTRF assay of inhibition of p53-MDM2 interaction (GST-MDM2 / biotinylated p53 peptide). It counts as binding. The settings on record: recombinant GST-tagged MDM2 and biotinylated p53 peptide, 37° C. for 1 h. The method, then: The ability of the compounds to inhibit the interaction between p53 and MDM2 proteins was measured by an HTRF (homogeneous time-resolved fluorescence) assay in which recombinant GST-tagged MDM2 binds to a peptide that resembles the MDM2-interacting region of p53 (Lane et al.). Binding of GST-MDM2 protein and p53-peptide (biotinylated on its N-terminal end) is registered by the FRET (fluorescence resonance energy transfer) between Europium (Eu)-labeled anti-GST antibody and streptavidin-conjugated Allophycocyanin (APC).
Sequence of interaction between p53 and MDM2 proteins (Q00987 whole entry): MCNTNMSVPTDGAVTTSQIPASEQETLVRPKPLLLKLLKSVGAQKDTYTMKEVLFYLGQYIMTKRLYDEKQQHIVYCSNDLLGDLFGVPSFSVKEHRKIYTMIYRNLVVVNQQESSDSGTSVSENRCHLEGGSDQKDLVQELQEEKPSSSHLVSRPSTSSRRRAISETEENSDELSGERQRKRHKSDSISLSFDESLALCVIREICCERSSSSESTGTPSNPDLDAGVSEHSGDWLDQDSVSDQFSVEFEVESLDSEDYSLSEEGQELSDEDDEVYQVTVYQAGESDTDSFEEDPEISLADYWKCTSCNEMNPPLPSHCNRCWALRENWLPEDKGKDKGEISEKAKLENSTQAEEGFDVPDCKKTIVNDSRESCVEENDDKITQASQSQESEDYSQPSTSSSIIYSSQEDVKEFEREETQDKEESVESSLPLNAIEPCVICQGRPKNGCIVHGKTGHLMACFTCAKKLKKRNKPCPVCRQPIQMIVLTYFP
Test is performed in black flat-bottom 384-well plates (Costar) in a total volume of 40 uL containing: 90 nM biotinylate peptide, 160 ng/ml GST-MDM2, 20 nM streptavidin-APC (PerkinElmerWallac), […] Eu-labeled anti-GST-antibody (PerkinElmerWallac), 0.2% bovine serum albumin (BSA), 1 mM dithiothreitol (DTT) and 20 mM Tris-borate seine (TBS) buffer as follows: Add 10 uL of GST-MDM2 (640 ng/ml working solution) in reaction buffer to each well. Add 10 uL diluted compounds (1:5 dilution in reaction buffer) to each well, mix by shaking. Add 20 uL biotinylated p53 peptide (180 nM working solution) in reaction buffer to
each well and mix on shaker. Incubate at 37° C. for 1 h. Add 20 uL streptavidin-APC and Eu-anti-GST antibody mixture (6 nM Eu-anti-GST and 60 nM streptavidin-APC working solutions), in TBS buffer with 0.2% BSA, shake at room temperature for 30 minutes and read using a TRF-capable plate reader at 665 and 615 nm (Victor 5, Perkin ElmerWallac). If not specified, the reagents were purchased from Sigma, Chemical Co.
On the technique in general: Time-resolved FRET reads energy transfer from a long-lived donor to a nearby acceptor.
Consider `Cc1ccc(F)cc1[C@H]1N2CC(=O)N(C)N=C2C[C@@H](c2cccc(Cl)c2)[C@]12C(=O)Nc1cc(Cl)ccc12` (racemic) [Example 1i, (6′R, 3R, 8′S)-6-chloro-8′-(3-chlorophenyl)-6′-(5-fluoro-2-methylphenyl)-2′-methyl-6′,7′,8′,9′-tetrahydro spiro[3H-indole-3,7′-(2H-pyrido[2,1-c][1,2,4]triazine)]-2,3′(1H)-dione], for which the IC50 was found to be 191 nM.

Consider `C=C(CC)[C@H]1N2CC(=O)N(CCCN(C)C)N=C2C[C@@H](c2cccc(Cl)c2)[C@]12C(=O)Nc1cc(Cl)ccc12` (racemic) [Example 5b, (6′R, 3R, 8′S)-6-chloro-8′-(3-chlorophenyl)-2′-(3-dimethylaminopropyl)-6′-(1-methylene-propyl)-6′,7′,8′,9′-tetrahydro spiro[3H-indole-3,7′-(2H-pyrido[2,1-c][1,2,4]triazine)]-2,3′(1H)-dione], for which the IC50 turned out to be 100 nM.

For the compound `C=C(CC)[C@H]1N2CC(=O)N(CCOC(C)=O)N=C2C[C@@H](c2cccc(Cl)c2)[C@]12C(=O)Nc1cc(Cl)ccc12` (racemic) [Example 7b, (6′R, 3R, 8′S)-2′-(2-acetoxyethyl)-6-chloro-8′-(3-chlorophenyl)-6′-(1-methylene-propyl)-6′,7′,8′,9′-tetrahydro spiro[3H-indole-3,7′-(2H-pyrido[2,1-c][1,2,4]triazine)]-2,3′(1H)-dione], the IC50 is 890 nM.

For `C=CCOc1ccc(I)cc1[C@H]1N2CC(=O)N(C)N=C2C[C@@H](c2cccc(Cl)c2)[C@]12C(=O)Nc1cc(Cl)ccc12` (racemic) [Example 18g, (6′R, 3R, 8′S)-6′-(2-allyloxy-5-iodo-phenyl)-6-chloro-8′-(3-chlorophenyl)-2′-methyl-6′,7′,8′,9′-tetrahydro spiro[3H-indole-3,7′-(2H-pyrido[2,1-c][1,2,4]triazine)]-2,3′(1H)-dione], the concentration for half-maximal inhibition (IC50) worked out at 272 nM.

As for `C=C(CC)[C@H]1N2CC(=O)N(CC(=O)NCCO)N=C2C[C@@H](c2cccc(Cl)c2)[C@]12C(=O)Nc1cc(Cl)ccc12` [Example 11c, (6′R, 3R, 8′S)-6-chloro-8′-(3-chlorophenyl)-2′-[(2-hydroxyethylamino)carbonyl-methyl]-6′-(1-methylene-propyl)-6′,7′,8′,9-tetrahydro spiro[3H-indole-3,7′-(2H-pyrido[2,1-c][1,2,4]triazine)]-2,3′(1H)-dione], the IC50 came out at 293 nM.
